The values below come from patent publication US12433861B2, “Compositions and methods for treating reperfusion injury or hemorrhage after recanalization therapy” (GNT Pharma Co., Ltd., priority 2020, dated 2025).

The subject of one assay is normal adult rats. The assay is described as follows: rt-PA-induced hemorrhagic transformation model (intracortical rt-PA) in normal adult rats: Evans blue extravasation and infarct volume. The format is in vivo, rat. The settings on record: intracortical 0.66 mg/kg rt-PA. How it is done:
Male Sprague-Dawley rats (340-380 g) were anesthetized with chloral hydrate (400 mg/kg, IP). The animals received intracortical injection of rt-PA (0.66 mg/kg; total […]) coordinated with 2.6 mm posterior, 5.4 mm lateral, and 3.8 mm from bregma at a flow rate of 0.5 μL/min using a infusion pump and Hamilton syringe. After the end of infusion, the syringe was removed from the cortex and nelonemdazK (30 mg/kg) was administrated through femoral vein for 5 min (3 mg/mL; 10 mL/kg). Six hours later, the rats were anesthetized and intravenously administrated with 4% Evans blue solution. Twenty minutes later, the rats were perfused transcardially first with saline and next with 4% paraformaldehyde. The brain was removed immediately and placed in the fixative for 15 min and scanned for evaluation of extravasation area of Evans blue to indirectly measure rt-PA-induced hemorrhagic transformation which occurs as a result of the breakdown of the blood-brain barrier (Jiang et al., 2018). To evaluate brain damage volume, the brain tissues were stored in 4% paraformaldehyde for 3 days and then processed overnight for paraffin embedding and cresyl violet staining. The extravasation area was measured by TINA imaging system (KAIST, Korea).
Animals received the intracortical injection of 0.66 mg/kg rt-PA that was followed by subsequent IV administration of vehicle or 30 mg/kg nelonemdazK 5 min later. Hemorrhagic transformation was investigated by analyzing extravasation of Evans blue dye at 6 h after rt-PA. (Upper panel) Compared to the sham control group, administration of rt-PA produced hemorrhagic transformation evident by extravasation of Evans blue, which was prevented by subsequent treatment with nelonemdazK.
Animals received sham operation or the intracortical injection of 0.66 mg/kg rt-PA, alone or with the subsequent intravenous administration of vehicle or 30 mg/kg nelonemdazK. Animals were sacrificed 6 h later and infarct volume was analyzed after staining brain sections with cresyl violet. (Upper panel) Photographs of brain sections stained with cresyl violet. Note brain lesion following the intracortical injections of rt-PA that was prevented by the administration of nelonemdazK. (Lower panel) Quantitation of infarct volume (Mean±S.E.M., n=3 for sham and 6 for rt-PA-treated groups) by summation of lesion areas in brain sections.

Assay [1] relates to acute ischemic stroke patients. Nature of the assay: ENIS phase II trial: acute ischemic stroke patients receiving a thrombolytic drug. In kind it is in vivo, human. The settings on record: for good recovery ratio (patients with NIHSS score of 0-1 or decrease of NIHSS score≥4): 14 days; for ratio of mRS 0 (no symptoms at all): 6,000 mg. How it is done:
The ENIS trial was to examine efficacy as well as safety of the intravenous infusions of nelonemdazK for acute ischemic stroke patients (35-80 years old) receiving at least one kind of thrombolytic drugs including rtPA or urokinase within 8 hours of onset. A total of 238 patients were enrolled for the ENIS trial and allocated randomly in a double-blinded manner to one of 4 groups for the intravenous infusions of test drugs as follows: (Group A) placebo [0.9% normal saline], (Group B) 2,750 mg nelonemdazK for 5 days [500 mg for 1st infusion followed by 2nd-10th infusions approximately at 12 h intervals (250 mg for each infusion)], (Group C) 5,250 mg nelonemdazK for 5 days [750 mg for 1st infusion followed by 2nd-10th infusions approximately at 12 h intervals (500 mg for each)], and (Group D) 6,000 mg nelonemdazK for 5 days [1500 mg for 1st infusion followed by 2nd-10th infusions approximately at 12 h intervals (500 mg for each)]. Acute ischemic stroke patients due to occlusion in internal carotid artery system within 8 hours of onset were enrolled. Patients with The National Institutes of Health Stroke Scale (NIHSS; range 0-42, with higher scores indicating greater stroke severity) scores of 4 to 22 and limb weakness including motor arm or motor leg score≥2 of NIHSS were included. All the patients received at least one kind of thrombolytic therapy before treatment of any study drug.
The beneficial effects of nelonemdazK were further observed by analyzing “the ratio of patients with NIHSS score of 0-1 or decrease of NIHSS score≥4 (=the good recovery ratio)” at 14 days after drug treatment. […] This implies that the beneficial effects of nelonemdazK are better for moderate to severe ([…]) ischemic stroke patients than mild (NIHSS score≤5) patients.

Structures are written as SMILES.

As for `O=C([O-])c1cc(NCc2c(F)c(F)c(C(F)(F)F)c(F)c2F)ccc1O.[K+]` [nelonemdazK, 2-Hydroxy-5-(2,3,5,6-tetrafluoro-4-trifluoromethylbenzylamino)benzoic acid potassium salt], the “hemorrhagic transformation evident by extravasation of Evans blue” value in the assay with normal adult rats (30 mg/kg IV 5 min later, 6 h after rt-PA) was “prevented”. For the same molecule, in the assay on normal adult rats (30 mg/kg IV, 6 h), the “brain lesion (cresyl violet)” value is “prevented”. Further, the “volume of Evans blue extravasation” value with normal adult rats (30 mg/kg IV, 6 h, vs vehicle, p<0.05) is recorded as “significantly reduced”. Besides, the infarct volume entry in the assay with normal adult rats (30 mg/kg IV, 6 h after rt-PA, vs vehicle) is “significantly reduced”. Also, the “percentage of mRS 0-2 (functional independence)” value in assay [1] (6,000 mg for 5 days, 14, 30, and 90 days, baseline NIHSS 6-24, vs placebo, potassium salt) is given as “increases”. Also, the “good recovery ratio (patients with NIHSS score of 0-1 or decrease of NIHSS score≥4)” value in assay [1] (6,000 mg (N=9), baseline NIHSS 9-24 (placebo 20%, p=0.022)) turned out to be 50%; in assay [1] (6,000 mg (N=36), baseline NIHSS 6-24 (placebo 25.53%, p=0.106)) it was 41.67%. For the same molecule, the “ratio of mRS 0 (no symptoms at all)” value in assay [1] (at 14 days, baseline NIHSS 6-24 (placebo 12%)) is 25%; in assay [1] (at 30 days, baseline NIHSS 6-24 (placebo 16%)), 34%; in assay [1] (at 90 days, baseline NIHSS 6-24 (placebo 26%)), 45%.
